Assay results from PubChem BioAssay (NCI).
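In this assay, cells in 96-well plates receive the compound at five concentrations for 48 hours. Endpoints are linearly interpolated between the surrounding concentrations. GI50 = concentration required for 50% inhibition of growth. At the TGI there is no net growth.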

What follows are molecules tested on PC-3 prostate (assay: growth of human tumour cells (NCI), 48 h).

SMILES	TGI	GI50
O=CCC1CCCCC1	> 100 µM	–
CSc1nc(=O)n(CCC#N)nc1SC	> 100 µM	–
COc1cc(Nc2ncccc2C(=O)NCc2cn(Cc3cccc(Oc4ccccc4)c3)nn2)cc(OC)c1	> 100 µM	4.74 µM
Nc1ccc([N+](=O)[O-])cc1N=C/C=C/c1ccccc1	> 100 µM	7.67 µM
COc1cc(-c2oc(=O)ccc2C#Cc2ccccn2)cc(OC)c1OC	> 100 µM	2.21 µM
COc1cccc(C2CC(C)(O)Oc3cc4c(cc32)OCO4)c1O (configuration not stated)	> 100 µM	–
COC(=O)C1c2cc3c(cc2C(OC2OC(C)C(OC)C(C)(OC)C2OC)CC1(C)O)C(=O)c1c(O)cc2c(c1C3=O)OC1OC2(C)C(O)C([N+](C)(C)[O-])C1O (configuration not stated)	> 40.7 µM	–
CNCc1ccccc1-c1csc([C@@H](C)Nc2nc(C)nc3cc(OC)c(OC)cc23)c1	12.3 µM	4.01 µM
Cn1cc(C2=C(c3ccc(N)cc3)C(=O)NC2=O)c2ccccc21	> 25 µM	17 µM
Cc1cc(Cl)cc(OCCn2cc(F)cn2)c1-c1nc(N)nc2c1CN(C(=O)NCC(C)(F)F)C2	> 100 µM	0.0924 µM
COc1ccc(/C=C\[N+](=O)[O-])cc1OC	8.85 µM	3.01 µM
CCN(CC)CCC(CNc1ccnc2cc(Cl)ccc12)c1ccc(Cl)cc1 (configuration not stated)	17.7 µM	3.28 µM
COc1cccc(F)c1C(=O)c1cnc(NC2CCN(S(C)(=O)=O)CC2)nc1N	12.3 µM	0.984 µM
CCOC(=O)C(C#N)C1=CC(=O)C(=O)c2ccc(OC)cc21 (configuration not stated)	77 µM	–
COc1cc(OCc2cccc(-c3ccc(C(O)c4nccs4)cc3)c2C)cc(OC)c1C=O (configuration not stated)	11.2 µM	2.74 µM
COC(=O)c1ccc2c(c1)nc(NC(=O)c1ccccc1)n2CCCc1ccccc1	> 100 µM	4.07 µM

SMILES	TGI	GI50
Cc1ccc(S(=O)(=O)Nc2ccccc2C=O)cc1	35.6 µM	–
O=C(O)COc1ccc2c(=O)c3sc4c(=O)c5ccccc5c(=O)c4c3c(=O)c2c1	> 100 µM	26.8 µM
O=C(Nc1ccc2ncccc2c1)Nc1ccc2ncccc2c1	> 100 µM	–
CC1(C)S[C@@H]2[C@H](NC(=O)C3(N)CCCCC3)C(=O)N2[C@H]1C(=O)O	> 100 µM	–
NC(=O)/C=C/C(=O)c1c(Cl)cccc1Cl	2.81 µM	1.46 µM
CC1(C)N=C(N)N=C(N)N1c1ccc(CCCCc2ccc(Cl)cc2S(=O)(=O)F)c(Cl)c1	16.7 µM	0.323 µM
O=C(Nc1ccc(Nc2ccncc2)cc1)c1ccc([N+](=O)[O-])cc1	> 56.6 µM	13.7 µM
C(=NCCN1CCOCC1)=NC1CCCCC1	> 100 µM	–
COc1ccccc1/C=N\N/C(N)=N\N=C\c1ccccc1OC	> 66.2 µM	0.476 µM
CC[As](CC)SC[C@H](C)C(=O)N1CCC[C@H]1C(=O)O	0.589 µM	0.106 µM
NC(N)=N/N=C/c1c(-c2ccsc2)nc2sccn12	26 µM	13.2 µM
Oc1ccc(Nc2ncnc3c2sc2ncccc23)cc1	> 100 µM	5.15 µM
COc1cccc(CC(C)=C(c2ccc(OCCN(C)C)cc2)c2ccc(OCCN(C)C)cc2)c1	6.82 µM	1.95 µM
NC(=S)N/N=C/C(=O)O	> 100 µM	67.7 µM
Cc1ccc(SC2c3ccc(C)cc3Oc3nc(N)c(C#N)c(N)c32)cc1 (configuration not stated)	3.74 µM	1.85 µM

The molecules below were run on SN12C renal (assay: growth of human tumour cells (NCI), 48 h).

SMILES	GI50	TGI
COc1ccc(Sc2[nH]c(C(C)=O)c3ccccc23)cc1	11 µM	24.7 µM
C#CCOc1cccc(-c2ncc3cc(NC(=O)CCl)ccc3n2)c1	1.44 µM	2.93 µM
